Tests used:
Assay type in all cases: cell-based, human
[1] = system: ABCB1 expression in NCI-H460 cells; assay: Immunofluorescence assay of MDR marker ABCB1 expression; conditions: five concentrations, 24 h
How it was run: (§1)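 Compounds added 48 h after seeding, then 24 h exposure. Cells fixed in 4% paraformaldehyde, BSA-blocked, co-stained for ABCB1 with CK8/18 to separate cancer from stromal cells; 4x automated imaging. Cytotoxicity from cell-count scoring; ABCB1 expression from multi-wavelength cell scoring.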

[2] = system: ABCB1 expression in NCI-H460/R cells; assay: as above; conditions: five concentrations, 24 h
How it was run: as §1

[3] = system: ABCG2 expression in cancer cells (CK8/18+); assay: Immunofluorescence assay of ABCG2 expression in patient-derived NSCLC cultures; conditions: 7 days
Procedure: (§2) Tissue samples were collected during surgery, and the NSCLC diagnosis, histological grade, stage, necrosis, and lymph node invasion status were determined by histopathological analysis. […] The surgical specimens were placed in a sterile tube containing antibiotic-antimycotic solution (Sigma-Aldrich Chemie GmbH, Taufkirchen, Germany) and immediately transported to the research laboratory for further processing.
(§3) Upon arrival, the tissue was manually chopped with a surgical blade in a Petri dish under sterile conditions. The samples were cut into 3–5 mm pieces and further dissociated using the Tumor Dissociation Kit (Miltenyi Biotec, Bergisch Gladbach, Germany). The Tumor Dissociation Kit was used to dissociate the cells from the tumor tissue according to the manufacturer’s instructions. The samples were incubated in a 37 °C orbital shaker (KS 4000 ic control, IKA, Königswinter, Germany) at 300 rpm for 90 min. After incubation, the dissociated tissue was placed in DMEM/Ham’s F12 (1:3 ratio) growth medium supplemented with 5% fetal bovine serum (Corning, NY, USA), antibiotic-antimycotic solution, 4 µg/mL hydrocortisone (Sigma-Aldrich Chemie GmbH, Taufkirchen, Germany), 1 µg/mL insulin (Sigma-Aldrich Chemie GmbH, Taufkirchen, Germany), 10 ng/mL epidermal growth factor (BioLegend, San Diego, CA, USA), and 24 µg/mL adenine (Sigma-Aldrich Chemie GmbH, Taufkirchen, Germany). The DMEM and Ham’s F12 growth media were purchased from Sigma-Aldrich Chemie GmbH (Taufkirchen, Germany).
(§4) The dissociated tissue was cultured in T-25 cell culture flasks until cell attachment was observed before the medium was replaced. If no cell attachment was achieved within 7 days, the sample was discarded. Successful patient-derived cultures were maintained at 37 °C in a humidified atmosphere with 5% CO2 and grown to confluence before undergoing further experiments. […] Partial trypsinization was performed by detaching the fibroblast-like cells with 1 mL of 0.05% trypsin for 1 min at 37 °C, followed by 2 min at room temperature (RT).
(§5) Vinorelbine and pemetrexed were purchased from Selleckchem (Houston, TX, USA). Carboplatin, cisplatin, docetaxel, etoposide, gemcitabine, gefitinib, and paclitaxel were purchased from Sigma-Aldrich Chemie GmbH (Taufkirchen, Germany). The cisplatin, carboplatin, and gemcitabine were dissolved in sterile water, while the etoposide, docetaxel, vinorelbine, paclitaxel, gefitinib, and pemetrexed were dissolved in DMSO and stored at −20 °C. Before treatment, all the stock solutions were freshly diluted in sterile water.
(§6) The primary cells were seeded in black, clear bottom 384-well cell culture microplates (Thermo Fisher Scientific, Waltham, MA, USA) in 50 µL of cell growth medium at a density of 1000 cells per well. The compounds were administered 72 h after seeding. The treatment lasted 7 days.
(§7) The immunofluorescence assay for the quantification of MDR markers was optimized to distinguish cancer cells from stromal cells using a cytokeratin 8/18 (CK8/18) antibody cocktail. The cells were fixed with 4% paraformaldehyde for 20 min at RT and washed three times with PBS using the Wellwash Versa microplate washer (Thermo Fisher Scientific, Waltham, MA, USA). The cells were then blocked with 2% bovine serum albumin (BSA) in PBS for 1 h at RT. […] Co-immunostaining with antibodies against MDR markers was performed to detect the presence of ABCB1, ABCC1, and ABCG2 in both the cancer and stromal cells. […] The secondary antibodies were incubated with the cells at RT for 2 h in the dark. […] Finally, the cells were washed three times with PBS and stored at 4 °C in the dark before imaging.

[4] = system: ABCC1 expression in non-cancer cells (CK8/18-); assay: Immunofluorescence assay of ABCC1 expression in patient-derived NSCLC cultures, non-cancer cells; conditions: sample TR58, chemotherapeutics, 7 days
Procedure: as §2, §3, §4, §5, §6, §7

[5] = system: ABCG2 expression in non-cancer cells (CK8/18-); assay: Immunofluorescence assay of ABCG2 expression in patient-derived NSCLC cultures, non-cancer cells; conditions: sample TR65, chemotherapeutics, 7 days
Procedure: as §2
Upon arrival, the tissue was manually chopped with a surgical blade in a Petri dish under sterile conditions. The samples were cut into 3–5 mm pieces and further dissociated using the Tumor Dissociation Kit (Miltenyi Biotec, Bergisch Gladbach, Germany). The Tumor Dissociation Kit was used to dissociate the cells from the tumor tissue according to the manufacturer’s instructions. The samples were incubated in a 37 °C orbital shaker (KS 4000 ic control, IKA, Königswinter, Germany) at 300 rpm for 90 min. […]
The immunofluorescence assay for the quantification of MDR markers was optimized to distinguish cancer cells from stromal cells using a cytokeratin 8/18 (CK8/18) antibody cocktail. […]

For Nc1ccn([C@@H]2O[C@H](CO)[C@@H](O)C2(F)F)c(=O)n1 [Gemcitabine, gemcitabine], the “ABCB1 Expression” value ([1]; NCI-H460 (co-culture with MRC-5)) was “no change”, the “ABCB1 Expression” value ([1]; NCI-H460 monoculture) was “no change” and the “ABCB1 Expression” value ([2]; NCI-H460/R (co-culture with MRC-5)) was “no change”. For the same molecule, the “ABCB1 Expression” value ([2]; NCI-H460/R monoculture) was “no change”, the ABCG2 expression ([3]; culture TR58, cancer cells (CK8/18+)) was “increase (An increase in ABCB1, ABCC1, or ABCG2 expression of at least 20% at a minimum of one concentration is shown in the table.)” and the ABCG2 expression ([3]; culture TR64, cancer cells (CK8/18+)) was “increase (An increase in ABCB1, ABCC1, or ABCG2 expression of at least 20% at a minimum of one concentration is shown in the table.)”. For the same molecule, the ABCG2 expression ([3]; culture TR65, cancer cells (CK8/18+)) was “increase (An increase in ABCB1, ABCC1, or ABCG2 expression of at least 20% at a minimum of one concentration is shown in the table.)”, the ABCG2 expression ([3]; culture TR84, cancer cells (CK8/18+)) was “increase (An increase in ABCB1, ABCC1, or ABCG2 expression of at least 20% at a minimum of one concentration is shown in the table.)” and the ABCG2 expression ([3]; culture TR87, cancer cells (CK8/18+)) was “increase (An increase in ABCB1, ABCC1, or ABCG2 expression of at least 20% at a minimum of one concentration is shown in the table.)”. For the same molecule, the “ABCC1 expression in CK8/18− cells” value [4] was “elevated” and the “ABCG2 expression in CK8/18− cells” value [5] was “elevated”.

— PMC10743086, “Immunofluorescence-Based Assay for High-Throughput Analysis of Multidrug Resistance Markers in Non-Small Cell Lung Carcinoma Patient-Derived Cells” (Diagnostics, 2023)
